Experimental data from article PMC2865582 (Journal of medicinal chemistry, 2010).

Key:
GIVA cPLA2 = target: T1, GIVA cPLA2 (Homo sapiens, UniProt P47712); assay: Mixed micelle-based; type: biochemical; details: for times more potent for GVIA iPLA2 than for GIVA cPLA2: ratio of XI(50) values; for inhibition at 0.091 mole fraction: read-out: GIVA cPLA2 % Inhibition
T1 sequence (P47712 1-749): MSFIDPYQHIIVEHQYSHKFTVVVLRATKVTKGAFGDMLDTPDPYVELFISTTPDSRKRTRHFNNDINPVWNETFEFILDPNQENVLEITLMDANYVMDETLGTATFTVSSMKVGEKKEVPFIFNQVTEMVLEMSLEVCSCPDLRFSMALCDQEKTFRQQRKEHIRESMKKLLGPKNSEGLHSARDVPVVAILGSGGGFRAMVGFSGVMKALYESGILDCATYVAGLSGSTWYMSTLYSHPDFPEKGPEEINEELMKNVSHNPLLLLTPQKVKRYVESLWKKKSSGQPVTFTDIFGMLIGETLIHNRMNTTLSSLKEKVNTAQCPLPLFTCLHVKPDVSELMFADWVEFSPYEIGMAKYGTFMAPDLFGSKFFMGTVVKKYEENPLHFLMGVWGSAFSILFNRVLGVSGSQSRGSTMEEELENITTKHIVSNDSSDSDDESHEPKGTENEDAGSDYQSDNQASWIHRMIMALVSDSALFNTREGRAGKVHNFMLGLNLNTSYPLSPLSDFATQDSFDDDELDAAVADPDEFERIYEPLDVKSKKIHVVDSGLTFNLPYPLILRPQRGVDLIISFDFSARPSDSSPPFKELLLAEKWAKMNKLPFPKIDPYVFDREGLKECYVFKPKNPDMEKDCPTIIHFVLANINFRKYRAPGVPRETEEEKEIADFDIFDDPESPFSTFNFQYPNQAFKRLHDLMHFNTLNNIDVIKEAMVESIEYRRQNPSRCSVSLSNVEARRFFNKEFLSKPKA

GV sPLA2 = target: T2, GV sPLA2 (Homo sapiens, UniProt P39877); assay: Mixed micelle-based; type: biochemical; details: lower bound from % inhibition at 0.091 mole fraction
T2 sequence (P39877 21-138): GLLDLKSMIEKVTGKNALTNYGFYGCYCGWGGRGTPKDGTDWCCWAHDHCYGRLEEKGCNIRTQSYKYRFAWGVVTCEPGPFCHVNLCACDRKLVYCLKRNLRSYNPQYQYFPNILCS

[1] = system: experimental autoimmune encephalomyelitis; details: animal model of multiple sclerosis; cited from earlier work
human GVIA iPLA2 = target: T3, human GVIA iPLA2 (Homo sapiens, UniProt O60733); details: previous mixed micelle assay with DPPC substrate; cited from earlier work
T3 sequence (O60733 1-806): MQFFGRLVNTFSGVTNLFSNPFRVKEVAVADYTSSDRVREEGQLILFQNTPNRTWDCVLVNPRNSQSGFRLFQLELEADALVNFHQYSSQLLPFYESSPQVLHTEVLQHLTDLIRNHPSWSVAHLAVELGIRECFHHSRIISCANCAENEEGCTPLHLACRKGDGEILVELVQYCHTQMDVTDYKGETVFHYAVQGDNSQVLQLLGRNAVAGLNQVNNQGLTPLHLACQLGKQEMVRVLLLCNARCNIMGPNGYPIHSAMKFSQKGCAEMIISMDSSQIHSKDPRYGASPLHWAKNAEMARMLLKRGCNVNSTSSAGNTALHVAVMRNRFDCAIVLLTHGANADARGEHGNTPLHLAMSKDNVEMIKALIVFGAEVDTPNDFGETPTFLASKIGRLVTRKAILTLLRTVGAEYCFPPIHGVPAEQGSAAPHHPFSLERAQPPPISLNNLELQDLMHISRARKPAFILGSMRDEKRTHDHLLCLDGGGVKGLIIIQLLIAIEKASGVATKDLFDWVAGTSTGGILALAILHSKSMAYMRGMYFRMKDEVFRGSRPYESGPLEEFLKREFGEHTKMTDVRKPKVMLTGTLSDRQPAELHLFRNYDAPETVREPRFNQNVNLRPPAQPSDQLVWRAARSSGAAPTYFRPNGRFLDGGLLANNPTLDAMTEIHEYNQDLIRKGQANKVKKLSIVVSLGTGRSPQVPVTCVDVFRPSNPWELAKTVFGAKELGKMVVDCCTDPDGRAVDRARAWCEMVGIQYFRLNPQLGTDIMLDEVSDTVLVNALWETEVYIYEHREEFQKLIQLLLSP

1,1,1,2,2,3,3,5-octafluoro-7-phenyloctan-4-one [compound 25]
times more potent for GVIA iPLA2 than for GIVA cPLA2 (GIVA cPLA2): 76 times | times more potent for GVIA iPLA2 than for GV sPLA2 (GV sPLA2): > 180 times

O=C(CCCCc1ccccc1)C(F)(F)C(F)(F)F [compound 2, 1,1,1,2,2-pentafluoro-7-phenylheptan-3-one]
inhibition at 0.091 mole fraction (GIVA cPLA2): < 25% | therapeutic effect in experimental autoimmune encephalomyelitis [1]: beneficial therapeutic effect | GVIA iPLA2 XI(50) determined previously (human GVIA iPLA2): 0.0073 mole fraction

O=C(CCCCc1ccc2ccccc2c1)C(F)(F)F [12g, 1,1,1-Trifluoro-6-(naphthalen-2-yl)hexan-2-one]
GIVA cPLA2 XI(50) (GIVA cPLA2; mole fraction of inhibitor in total substrate interface giving 50% inhibition): 0.039 ± 0.001 mole fraction | times more potent for GVIA iPLA2 than for GV sPLA2 (GV sPLA2): > 455 times

O=C(CCCCc1ccc2ccccc2c1)C(F)(F)C(F)(F)C(F)(F)F [12i, 1,1,1,2,2,3,3-Heptafluoro-8-(naphthalen-2-yl)octan-4-one]
times more potent for GVIA iPLA2 than for GIVA cPLA2 (GIVA cPLA2): at least 90 times | times more potent for GVIA iPLA2 than for GV sPLA2 (GV sPLA2): at least 90 times

O=C(CCCCCc1ccccc1)C(F)(F)C(F)(F)C(F)(F)F [6b, 1,1,1,2,2,3,3-Heptafluoro-9-phenylnonan-4-one]
inhibition at 0.091 mole fraction (GIVA cPLA2): < 25%
